US20070225339A1, “Compositions and methods for treating rheumatoid arthritis” (priority 2006, published 2007)
“Also recorded” adds a separate entry of the source.

Assays:
healthy subjects = experiment: Phase 1 studies, tolerability; type: in vivo, human
Description: (§1) Five Phase 1 studies of VX-702 in healthy subjects and one Phase 2a study evaluating the safety and tolerability of VX-702 in subjects with unstable angina pectoris (UAP) who were scheduled for percutaneous coronary intervention with or without stenting were performed. Multiple dose studies of VX-702 were conducted for up to 28 days.

[1] = system: subjects with moderate or severe RA; experiment: Safety evaluations in the twelve-week RA study (adverse events, laboratory, Holter, ECG); type: in vivo, human; settings: for Mean increase in QTcF: end of treatment, baseline approximately 400 msec, placebo −0.6 msec
Description: VX-702 was examined in a randomized, placebo-controlled, multiple-dose, blinded, dose escalation study in 315 subjects with moderate or severe RA. Subjects were divided into 3 approximately equal-sized groups of 100-105 subjects each. In one group, subjects received 5 mg VX-702 once daily or 2.5 mg VX-702 twice daily (total 5 mg/day) for twelve weeks. Another group received 10 mg VX-702 once daily for twelve weeks. Another group subjects received placebo once daily for twelve weeks. Safety evaluations of subjects in the study were also conducted. These included physical examinations, including vital signs measurements (including blood pressure, heart rate, respiration rate, and temperature); clinical laboratory assessments (hematology, chemistry, and urinalysis testing); creatinine clearance; adverse events; Holter monitoring and electrocardiogram (ECG) (12-lead). Responses to treatment were evaluated by changes in ACR (e.g., ACR20) or EULAR criteria. Responses to treatment were measured at Weeks 2, 4, 6, 8, 10 and 12. Safety evaluations were also conducted at these time points. Holter monitoring and ECG were not performed at every time point. Four weeks after completion of the study, responses to treatment and safety evaluations were conducted on subjects.

[2] = system: subjects with unstable angina pectoris (UAP); experiment: Phase 2a study, safety and tolerability; type: in vivo, human; settings: up to 40 mg/day for 5 days
Description: as §1

[3] = system: subjects with moderate or severe RA; experiment: Randomized, placebo-controlled, blinded twelve-week study in RA: responses to treatment (ACR, EULAR, DAS28); type: in vivo, human; settings: for ACR 20 Response / EULAR Response (moderate or good) / Improvement from baseline in DAS28 / Mean reduction in morning stiffness / Percent Change in Swollen Joints / Percent Change in Tender Joints / Percent Improvement in DAS / Percent reduction in morning stiffness: End of Treatment (Week 12)
Description: VX-702 was examined in a randomized, placebo-controlled, multiple-dose, blinded, dose escalation study in 315 subjects with moderate or severe RA.
Subjects were divided into 3 approximately equal-sized groups of 100-105 subjects each. In one group, subjects received 5 mg VX-702 once daily or 2.5 mg VX-702 twice daily (total 5 mg/day) for twelve weeks. Another group received 10 mg VX-702 once daily for twelve weeks. Another group subjects received placebo once daily for twelve weeks.
The subjects had to be between the ages of 18-75 years (inclusive) and have active RA of six months of duration or longer by the ACR revised criteria. The subjects had to have a C-reactive protein (CRP) serum levels of greater than 2 mg/dL at time of randomization, a swollen joint count of eight or greater (of 28) and tender joint count of 10 or greater (of 28). The subjects had to have had no prior treatment with Disease modifying anti-rheumatic drugs (DMARD) therapy or inadequate response to DMARD therapy. If a subject had received prior therapy with an antibody or binding protein to TNF (anti-TNF) or with recombinant IL-1 receptor antagonist (IL-1Ra), the subject may have discontinued treatment due to tolerability reasons but not have discontinued treatment because of an inadequate response. Subjects must also have discontinued DMARD therapy (except for sulfasalazine or hydroxychloroquine) for at least one month prior to randomization. Subjects could receive one NSAID and/or prednisone (≦10 mg/day) if they had been treated at a stable dose for at least one month prior to randomization.
Responses to treatment were evaluated by changes in ACR (e.g., ACR20) or EULAR criteria. Responses to treatment were measured at Weeks 2, 4, 6, 8, 10 and 12. Safety evaluations were also conducted at these time points. Holter monitoring and ECG were not performed at every time point. Four weeks after completion of the study, responses to treatment and safety evaluations were conducted on subjects.
ACR Preliminary Definition of Improvement in RA (ACR20):
Required: ≧20% improvement in tender joint count • ≧20% improvement in swollen joint count And, at least 20% improvement in 3 of the following 5: • Subject pain assessment • Subject global assessment • Physician global assessment • Subject self-assessed disability
Acute-phase reactant (CRP or ESR)
The ACR50 and ACR70 responses require ≧50% and ≧70% improvement, respectively, in the same criteria as described for the ACR20 response.
EULAR is described in Fransen et al., Clinical and Experimental Rheumatology 23 (Suppl. 39): S93-99, 2005, which is hereby incorporated by reference in its entirety. EULAR is based on the Disease Activity Score (DAS), a clinical index of RA disease activity that combines information from swollen joints, tender joints, the acute phase response and general health into one continuous measure of rheumatoid inflammation. DAS28 is an index similar to the original DAS, consisting of a 28 tender joint count (range 0-28), a 28 swollen joint count (range 0-28), erythrocyte sedimentation rate (ESR) and an optional general health assessment on a visual analogue scale (range 0-100).

Oral bioavailability = settings: in vivo
patients with RA [4] = settings: standard of care in patients with RA; cited from earlier work
patients with RA [5] = settings: etanercept by injection in combination with methotrexate; cited from earlier work

With `NC(=O)c1ccc(N(C(N)=O)c2c(F)cccc2F)nc1-c1ccc(F)cc1F` [VX-702] the “Severity of adverse events” value (healthy subjects; Phase 1, healthy subjects) was “mild or moderate severity”, the Tolerability (healthy subjects; dosages of up to 20 mg/day, multiple dose up to 28 days, healthy subjects) was “moderately to well tolerated” and the “Premature discontinuations for adverse events, patients” value ([1]; 5 mg VX-702, twelve weeks) was 3%. For the same molecule, the “Mean increase in QTcF” value ([1]; 5 mg group) was 3 ms, the “Premature discontinuations for adverse events, patients” value ([1]; 10 mg VX-702, twelve weeks) was 5% and the “Mean increase in QTcF” value ([1]; 10 mg group) was 6 ms. The “Effects on laboratory parameters, including liver function tests” value ([1]; 5 or 10 mg/day, twelve weeks) was “No clinically significant effects”, the “Severity of adverse events” value ([1]; 5 or 10 mg/day, twelve weeks) was “generally mild to moderate; also recorded: generally rated mild or moderate” and the Tolerability ([1]; 5 or 10 mg/day, twelve weeks) was “well tolerated”. For the same molecule, the “Holter monitoring: ventricular ectopic activity and arrhythmias versus placebo” value ([1]; 24 to 72-hour continuous EKG, 6 times/patient) was “did not reveal an increased tendency for arrhythmias”, the “Skin disorders (rash, acne, itching), patients” value ([1]; VX-702-treated patients) was “approximately 9%” and the “Isolated serious adverse events, patients” value ([1]; VX-702-treated patients (5 and 10 mg groups)) was 4-7%. The “Infections (upper respiratory infections, gastroenteritis, nasopharyngitis, etc), patients” value ([1]; VX-702-treated patients, placebo 5%) was 10%, the “Gastrointestinal disorders (nausea, vomiting, diarrhea), patients” value ([1]; VX-702-treated patients, placebo 6%) was 8% and the “Patients with maximal increase in QTcF of >60 msec” value ([1]; at any point in the study) was “No patient”. For the same molecule, the “Patients with ALT value above the upper limit of normal” value ([1]; at each on-treatment visit, placebo 1-2%) was 2-4%, the “Patients discontinued for elevations in liver function tests” value ([1]; twelve weeks) was “No patients” and the “Patients with ALT elevation to three times the upper limit of normal” value ([1]; twelve weeks) was “No patient”. For the same molecule, the “Severity of adverse events” value [2] was “mild to moderate severity”, the “ACR 20 Response” value ([3]; 5 mg VX-702 per day) was 36% and the “EULAR Response (moderate or good)” value ([3]; 5 mg VX-702 per day) was 40%. The “Improvement from baseline in DAS28” value ([3]; 5 mg VX-702 per day) was −1.0, the “Mean reduction in morning stiffness” value ([3]; 5 mg VX-702 per day) was -98 min and the “Percent Change in Swollen Joints” value ([3]; 5 mg VX-702 per day) was −35%. The “Percent Change in Tender Joints” value ([3]; 5 mg VX-702 per day) was −28%, the “Percent Improvement in DAS” value ([3]; 5 mg VX-702 per day) was −15% and the “Percent reduction in morning stiffness” value ([3]; 5 mg VX-702 per day) was −21.6%. For the same molecule, the “EULAR Response (moderate or good)” value ([3]; 5 mg VX-702 per day, listed as 702) was 40%, the “Symptoms of RA compared to placebo” value ([3]; 5 mg or 10 mg once daily for twelve weeks, Week 12) was “showed an improvement in their symptoms” and the “ACR 20 Response” value ([3]; 10 mg VX-702 once daily) was 40%. The “EULAR Response (moderate or good)” value ([3]; 10 mg VX-702 once daily) was 44%, the “Improvement from baseline in DAS28” value ([3]; 10 mg VX-702 once daily) was −1.2 and the “Mean reduction in morning stiffness” value ([3]; 10 mg VX-702 once daily) was -82 min. The “Percent Change in Swollen Joints” value ([3]; 10 mg VX-702 once daily) was −46%, the “Percent Change in Tender Joints” value ([3]; 10 mg VX-702 once daily) was −36% and the “Percent Improvement in DAS” value ([3]; 10 mg VX-702 once daily) was −18%. For the same molecule, the “Percent reduction in morning stiffness” value ([3]; 10 mg VX-702 once daily) was −2.7%, the “ACR20 response rates, dose-response” value ([3]; placebo, 5 mg, 10 mg, Jonckheere-Terpstra test, p=0.02) was “dose-dependent statistically significant increase” and the Oral bioavailability (Oral bioavailability) was “orally bioavailable”.

In the case of `CN(Cc1cnc2nc(N)nc(N)c2n1)c1ccc(C(=O)N[C@@H](CCC(=O)O)C(=O)O)cc1` [methotrexate], the “Response (improvement) often observed” value (patients with RA [4]) is given as “less than 50%”.

In the case of etanercept, the Clinical remission rate (patients with RA [5]) is given as 35%.
